Experimental data: patent US4399132A, “7-Beta-[alpha-syn-methoxyimino-alpha-(2-aminothiazol-4-yl)-aceta mido]-3-[(1,2,3-thiadiazol-5-ylthio)methyl]-3-cephem-4-carboxylic acid and C1 -C6 alkyl derivatives thereof” (American Cyanamid Company, priority 1981, dated 1983)
Values after ≈ are worked out from the molar mass of the structure shown. Read-outs that look alike come from different tables or passages of the source.

System: Staphylococcus aureus
Test: Mueller-Hinton agar dilution method (MIC)
Assay type: cell-based
[1] = beta-lactamase negative, strain SSC 79-3, Table II, read-out: Minimal Inhibitory Concentration
[2] = beta-lactamase negative, strain SSC 79-5, Table II, read-out: Minimal Inhibitory Concentration
[3] = beta-lactamase negative, strain SSC 79-7, Table II, read-out: Minimal Inhibitory Concentration
[4] = beta-lactamase negative, strain SSC 79-9, Table II, read-out: Minimal Inhibitory Concentration
[5] = beta-lactamase negative, strain SSC 79-10, Table II, read-out: Minimal Inhibitory Concentration
[6] = beta-lactamase negative, strain SSC 79-11, Table II, read-out: Minimal Inhibitory Concentration
[7] = beta-lactamase negative, strain SSC 79-14, Table II, read-out: Minimal Inhibitory Concentration
[8] = beta-lactamase negative, strain SSC 79-15, Table II, read-out: Minimal Inhibitory Concentration
[9] = beta-lactamase negative, strain SSC 79-17, Table II, read-out: Minimal Inhibitory Concentration
[10] = beta-lactamase positive, strain SSC 79-24, Table II, read-out: Minimal Inhibitory Concentration
[11] = beta-lactamase positive, strain SSC 79-27, Table II, read-out: Minimal Inhibitory Concentration
[12] = beta-lactamase positive, strain SSC 79-28, Table II, read-out: Minimal Inhibitory Concentration
[13] = beta-lactamase positive, strain SSC 79-36, Table II, read-out: Minimal Inhibitory Concentration
[14] = beta-lactamase positive, strain SSC 79-38, Table II, read-out: Minimal Inhibitory Concentration
[15] = beta-lactamase positive, strain SSC 79-39, Table II, read-out: Minimal Inhibitory Concentration
[16] = beta-lactamase positive, strain SSC 79-41, Table II, read-out: Minimal Inhibitory Concentration
[17] = beta-lactamase positive, strain SSC 79-44, Table II, read-out: Minimal Inhibitory Concentration
[18] = beta-lactamase positive, strain SSC 79-47, Table II, read-out: Minimal Inhibitory Concentration

Row | MIC [1] | MIC [2] | MIC [3] | MIC [4] | MIC [5] | MIC [6] | MIC [7] | MIC [8] | MIC [9] | MIC [10] | MIC [11] | MIC [12] | MIC [13] | MIC [14] | MIC [15] | MIC [16] | MIC [17] | MIC [18] | Structure (SMILES) | further results
1 | 1 µg/mL (≈ 1.95 µM) | 4 µg/mL (≈ 7.82 µM) | 1 µg/mL (≈ 1.95 µM) | 2 µg/mL (≈ 3.91 µM) | 1 µg/mL (≈ 1.95 µM) | 1 µg/mL (≈ 1.95 µM) | 4 µg/mL (≈ 7.82 µM) | 4 µg/mL (≈ 7.82 µM) | 2 µg/mL (≈ 3.91 µM) | 32 µg/mL (≈ 62.6 µM) | 2 µg/mL (≈ 3.91 µM) | 2 µg/mL (≈ 3.91 µM) | 2 µg/mL (≈ 3.91 µM) | 2 µg/mL (≈ 3.91 µM) | 4 µg/mL (≈ 7.82 µM) | 4 µg/mL (≈ 7.82 µM) | 2 µg/mL (≈ 3.91 µM) | 2 µg/mL (≈ 3.91 µM) | CO/N=C(\C(=O)N[C@@H]1C(=O)N2C(C(=O)O)=C(CSc3nnnn3C)CS[C@H]12)c1csc(N)n1 [Compound III, Cefmenoxime] | –
2 | – | – | – | – | – | – | – | – | – | – | – | – | – | – | – | – | – | – | CO/N=C(\C(=O)N[C@@H]1C(=O)N2C(C(=O)O)=C(COC(C)=O)CS[C@H]12)c1csc(N)n1 [Compound II] | MIC (read-out: Minimal Inhibitory Concentration, beta-lactamase negative, strain SSC 79-3, Table II): 0.5 µg/mL (≈ 1.1 µM); MIC (read-out: Minimal Inhibitory Concentration, beta-lactamase negative, strain SSC 79-5, Table II): 1 µg/mL (≈ 2.2 µM); MIC (read-out: Minimal Inhibitory Concentration, beta-lactamase negative, strain SSC 79-7, Table II): 0.5 µg/mL (≈ 1.1 µM); MIC (read-out: Minimal Inhibitory Concentration, beta-lactamase negative, strain SSC 79-9, Table II): 0.5 µg/mL (≈ 1.1 µM); MIC (read-out: Minimal Inhibitory Concentration, beta-lactamase negative, strain SSC 79-10, Table II): 0.5 µg/mL (≈ 1.1 µM); MIC (read-out: Minimal Inhibitory Concentration, beta-lactamase negative, strain SSC 79-11, Table II): 0.5 µg/mL (≈ 1.1 µM); MIC (read-out: Minimal Inhibitory Concentration, beta-lactamase negative, strain SSC 79-14, Table II): 2 µg/mL (≈ 4.39 µM); MIC (read-out: Minimal Inhibitory Concentration, beta-lactamase negative, strain SSC 79-15, Table II): 2 µg/mL (≈ 4.39 µM); MIC (read-out: Minimal Inhibitory Concentration, beta-lactamase negative, strain SSC 79-17, Table II): 1 µg/mL (≈ 2.2 µM); MIC (read-out: Minimal Inhibitory Concentration, beta-lactamase positive, strain SSC 79-24, Table II): 16 µg/mL (≈ 35.1 µM); MIC (read-out: Minimal Inhibitory Concentration, beta-lactamase positive, strain SSC 79-27, Table II): 1 µg/mL (≈ 2.2 µM); MIC (read-out: Minimal Inhibitory Concentration, beta-lactamase positive, strain SSC 79-28, Table II): 1 µg/mL (≈ 2.2 µM); MIC (read-out: Minimal Inhibitory Concentration, beta-lactamase positive, strain SSC 79-36, Table II): 1 µg/mL (≈ 2.2 µM); MIC (read-out: Minimal Inhibitory Concentration, beta-lactamase positive, strain SSC 79-38, Table II): 1 µg/mL (≈ 2.2 µM); MIC (read-out: Minimal Inhibitory Concentration, beta-lactamase positive, strain SSC 79-39, Table II): 1 µg/mL (≈ 2.2 µM); MIC (read-out: Minimal Inhibitory Concentration, beta-lactamase positive, strain SSC 79-41, Table II): 2 µg/mL (≈ 4.39 µM); MIC (read-out: Minimal Inhibitory Concentration, beta-lactamase positive, strain SSC 79-44, Table II): 1 µg/mL (≈ 2.2 µM); MIC (read-out: Minimal Inhibitory Concentration, beta-lactamase positive, strain SSC 79-47, Table II): 1 µg/mL (≈ 2.2 µM)
3 | 1 µg/mL (≈ 2.61 µM) | 1 µg/mL (≈ 2.61 µM) | 0.5 µg/mL (≈ 1.3 µM) | 1 µg/mL (≈ 2.61 µM) | 1 µg/mL (≈ 2.61 µM) | 0.5 µg/mL (≈ 1.3 µM) | 4 µg/mL (≈ 10.4 µM) | 1 µg/mL (≈ 2.61 µM) | 1 µg/mL (≈ 2.61 µM) | > 128 µg/mL | 0.5 µg/mL (≈ 1.3 µM) | 0.5 µg/mL (≈ 1.3 µM) | 1 µg/mL (≈ 2.61 µM) | 0.5 µg/mL (≈ 1.3 µM) | 4 µg/mL (≈ 10.4 µM) | 1 µg/mL (≈ 2.61 µM) | 0.5 µg/mL (≈ 1.3 µM) | 1 µg/mL (≈ 2.61 µM) | CO/N=C(\C(=O)N[C@@H]1C(=O)N2C(C(=O)O)=CCS[C@H]12)c1csc(N)n1 [Compound IV, Ceftizoxime] | –
